We go through 26 compounds from US9663513B2, “Pyrimidine PDE10 inhibitors” (Merck Sharp & Dohme Corp., priority 2012, dated 2017).

Molecules are shown by their SMILES.

This test concerns the target human PDE10A2 (Homo sapiens (Human), UniProt Q9Y233). Kind of test: PDE10 fluorescence polarization (IMAP FP) inhibition assay. To be noted: human PDE10A2 from transfected AD293 cells; FAM-labeled cAMP 50 nM; apparent inhibition constant; read-out: PDE10A Ki. The format is biochemical. As to the method: The activity of the compounds in accordance with the present invention as PDE10 inhibitors may be readily determined without undue experimentation using a fluorescence polarization (FP) methodology that is well known in the art (Huang, W., et al., J. Biomol Screen, 2002, 7: 215).
In a typical experiment the PDE10 inhibitory activity of the compounds of the present invention was determined in accordance with the following experimental method. PDE10A2 was amplified from human fetal brain cDNA (Clontech, Mountain View, Calif.) using a forward primer corresponding to nucleotides 56-77 of human PDE10A2 (Accession No. AF127480, Genbank Identifier 4894716), containing a Kozak consensus sequence, and a reverse primer corresponding to nucleotides 2406-2413 of human PDE10A2 (Accession No. AF127480, Genbank Identifier 4894716). Amplification with Easy-A polymerase (Stratagene, La Jolla, Calif.) was 95° C. for 2 minutes followed by thirty three cycles of 95° C. for 40 seconds, 55° C. for 30 seconds, and 72° C. for 2 minutes 48 seconds. Final extension was 72° C. for 7 minutes. The PCR product was TA cloned into pcDNA3.2-TOPO (Invitrogen, Carlsbad, Calif.) according to standard protocol. AD293 cells with 70-80% confluency were transiently transfected with human PDE10A2/pcDNA3.2-TOPO using Lipofectamine 2000 according to manufacturer specifications (Invitrogen, Carlsbad, Calif.). Cells were harvested 48 hours post-transfection and lysed by sonication (setting 3, 10×5 sec pulses) in a buffer containing 20 mM HEPES, 1 mM EDTA and protease inhibitor cocktail (Roche). Lysate was collected by centrifugation at 75,000×g for 20 minutes. Supernatant containing the cytoplasmic fraction was used for evaluation of PDE10A2 activity. The fluorescence polarization assay for cyclic nucleotide phosphodiesterases was performed using an IMAP® FP kit supplied by Molecular Devices, Sunnyvale, Calif. (product # R8139). IMAP® technology has been applied previously to phosphodiesterase assays (Huang, W., et al., J. Biomol Screen, 2002, 7: 215). Assays were performed at room temperature in 384-well microtiter plates with an incubation volume of 20.2 μL. Solutions of test compounds were prepared in DMSO and serially diluted with DMSO to yield 8 μL of each of 10 solutions differing by 3-fold in concentration, at 32 serial dilutions per plate. […] 0% of inhibition is determined by using DMSO (1% final concentrations).
A Labcyte Echo 555 (Labcyte, Sunnyvale, Calif.) is used to dispense 200 nL from each well of the titration plate to the 384 well assay plate. A solution of enzyme (1/1600 dilution from aliquots; sufficient to produce 20% substrate conversion) and a separate solution of FAM-labeled cAMP PDE from Molecular Devices (product # R7506), at a final concentration of 50 nM are made in the assay buffer (10 mM Tris HCl, pH 7.2, 10 mM MgCl2, 0.05% NaN3 0.01% Tween-20, and 1 mM DTT). The enzyme and the substrate are then added to the assay plates in two consecutive additions of 10 μL, and then shaken to mix. The reaction is allowed to proceed at room temperature for 30 minutes. […] The enzymatic reaction is stopped by addition of 60 μL of the binding solution to each well of the assay plates and the plates are sealed and shaken for 10 seconds. The plate was incubated at room temperature for at least one hour prior to determining the fluorescence polarization (FP). The parallel and perpendicular fluorescence of each well of the plate was measured using a Perkin Elmer EnVision™ plate reader (Waltham, Mass.).
Fluorescence polarization (mP) was calculated from the parallel (S) and perpendicular (P) fluorescence of each sample well and the analogous values for the median control well, containing only substrate (So and Po), using the following equation: Polarization(mP)=1000*(S/So−P/Po)/(S/So+P/Po).
Dose-inhibition profiles for each compound were characterized by fitting the mP data to a four-parameter equation given below.
Background: Fluorescence polarisation rises when a labelled molecule tumbles more slowly, as on binding a larger partner.

human PDE10A2, sequence (Q9Y233 267-1055): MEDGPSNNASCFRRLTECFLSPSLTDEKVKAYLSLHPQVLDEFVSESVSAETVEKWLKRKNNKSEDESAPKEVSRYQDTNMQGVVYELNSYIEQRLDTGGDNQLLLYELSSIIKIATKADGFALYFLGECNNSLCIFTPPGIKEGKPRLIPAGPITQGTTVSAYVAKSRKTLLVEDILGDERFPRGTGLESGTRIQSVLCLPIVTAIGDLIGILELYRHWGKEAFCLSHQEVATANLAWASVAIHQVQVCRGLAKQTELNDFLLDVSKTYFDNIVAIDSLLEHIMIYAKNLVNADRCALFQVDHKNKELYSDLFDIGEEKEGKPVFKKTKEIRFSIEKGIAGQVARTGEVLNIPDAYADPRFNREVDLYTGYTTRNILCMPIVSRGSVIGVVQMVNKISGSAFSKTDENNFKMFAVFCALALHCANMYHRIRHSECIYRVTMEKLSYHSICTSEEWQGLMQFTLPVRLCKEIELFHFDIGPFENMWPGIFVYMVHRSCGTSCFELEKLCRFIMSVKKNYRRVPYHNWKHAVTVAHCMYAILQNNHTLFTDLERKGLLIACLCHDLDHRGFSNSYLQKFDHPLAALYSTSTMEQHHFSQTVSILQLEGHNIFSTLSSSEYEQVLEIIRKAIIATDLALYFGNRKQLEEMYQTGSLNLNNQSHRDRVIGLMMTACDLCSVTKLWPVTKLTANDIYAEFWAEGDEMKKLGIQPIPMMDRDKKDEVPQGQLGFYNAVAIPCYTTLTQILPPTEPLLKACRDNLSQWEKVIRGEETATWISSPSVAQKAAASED

Regarding `Cc1ccc([C@H]2C[C@@H]2COc2nc(C)ncc2-c2cc(C)ccc2C)nc1` [Example 13, 5-(2,5-dimethylphenyl)-2-methyl-4-(((1S,2S)-2-(5-methylpyridin-2-yl)cyclopropyl)methoxy)pyrimidine], the Ki worked out at 0.7 nM.
As for `Cc1ccc([C@H]2C[C@@H]2COc2nc(C)ncc2-c2ccccc2C(F)(F)F)nc1` [Example 14, 2-methyl-4-(((1S,2S)-2-(5-methylpyridin-2-yl)cyclopropyl)methoxy)-5-(2-(trifluoromethyl)phenyl)pyrimidine], the Ki is 3.1 nM.
Under `Cc1ccc([C@H]2C[C@@H]2COc2nc(C)ncc2-c2ccc(F)c(F)c2)nc1` [Example 15, 5-(3,4-difluorophenyl)-2-methyl-4-(((1S,2S)-2-(5-methylpyridin-2-yl)cyclopropyl)methoxy)pyrimidine] stands 1.11 nM; under `COc1ncccc1-c1cnc(C)nc1OC[C@H]1C[C@@H]1c1ccc(C)cn1` [Example 16, 5-(2-methoxypyridin-3-yl)-2-methyl-4-(((1S,2S)-2-(5-methylpyridin-2-yl)cyclopropyl)methoxy)pyrimidine], 0.74 nM; under `Cc1ccc([C@H]2C[C@@H]2COc2nc(C)ncc2-c2ccncc2C(F)(F)F)nc1` [Example 17, 2-methyl-4-(((1S,2S)-2-(5-methylpyridin-2-yl)cyclopropyl)methoxy)-5-(3-(trifluoromethyl)pyridin-4-yl)pyrimidine], 0.59 nM.
Under `Cc1ccc([C@H]2C[C@@H]2COc2nc(C)ncc2-c2ccnc(F)c2)nc1` [Example 19, 5-(2-fluoropyridin-4-yl)-2-methyl-4-(((1S,2S)-2-(5-methylpyridin-2-yl)cyclopropyl)methoxy)pyrimidine] stands 0.55 nM.
In the case of `COc1ccc([C@H]2C[C@@H]2COc2nc(C)ncc2-c2ccnc(F)c2)nc1` [Example 21, 5-(2-fluoropyridin-4-yl)-4-(((1S,2S)-2-(5-methoxypyridin-2-yl)cyclopropyl)methoxy)-2-methylpyrimidine] it was 0.33 nM; in that of `Cc1ccc(-c2cnc(C)nc2OC[C@H]2C[C@@H]2c2ccc3ccccc3n2)cn1` [Example 42, 2-((1S,2S)-2-((2-methyl-5-(6-methylpyridin-3-yl)pyrimidin-4-yloxy)methyl)cyclopropyl)quinoline], 0.02 nM.
As to `Cc1ccc([C@H]2C[C@@H]2COc2nc(C)ncc2-c2cnc(C(C)(C)O)cc2C)nc1` [Example 45, 2-(4-Methyl-5-(2-methyl-4-(((1S,2S)-2-(5-methylpyridin-2-yl)cyclopropyl)methoxy)pyrimidin-5-yl)pyridin-2-yl)propan-2-ol], the Ki turned out to be 0.02 nM.
Under `COC(=O)c1ccc(-c2cnc(C)nc2OC[C@H]2C[C@@H]2c2ccc(C)cn2)cn1` [Example 47, methyl 5-(2-methyl-4-(((1S,2S)-2-(5-methylpyridin-2-yl)cyclopropyl)methoxy)pyrimidin-5-yl)picolinate] stands 2.2 nM.
As for `Cc1ccc([C@H]2C[C@@H]2COc2nc(C)ncc2-c2ccc3[nH]ccc3c2)nc1` [Example 48, 5-(2-methyl-4-(((1S,2S)-2-(5-methylpyridin-2-yl)cyclopropyl)methoxy)pyrimidin-5-yl)-1H-indole], the Ki came to 3.25 nM.
Under `Cc1ccc([C@H]2C[C@@H]2COc2nc(C)ncc2-c2cccoc2=O)nc1` [Example 49, 3-(2-methyl-4-(((1S,2S)-2-(5-methylpyridin-2-yl)cyclopropyl)methoxy)pyrimidin-5-yl)-2H-pyran-2-one] stands 22.4 nM; under `Cc1ccc([C@H]2C[C@@H]2COc2nc(C)ncc2-c2ccc(=O)oc2)nc1` [Example 50, 5-(2-methyl-4-(((1S,2S)-2-(5-methylpyridin-2-yl)cyclopropyl)methoxy)pyrimidin-5-yl)-2H-pyran-2-one], 4.28 nM.
Regarding `Cc1ccc([C@H]2C[C@@H]2COc2nc(C)ncc2C2=CCOCC2)nc1` [Example 51, 5-(3,6-dihydro-2H-pyran-4-yl)-2-methyl-4-(((1S,2S)-2-(5-methylpyridin-2-yl)cyclopropyl)methoxy)pyrimidine], the Ki turned out to be 1.96 nM.
Turning to `COc1nncc(-c2cnc(C)nc2OC[C@H]2C[C@@H]2c2ccc(C)cn2)c1Cl` [Example 52, 4-chloro-3-methoxy-5-(2-methyl-4-(((1S,2S)-2-(5-methylpyridin-2-yl)cyclopropyl)methoxy)pyrimidin-5-yl)pyridazine], the Ki turned out to be 2.36 nM.
As for `Cc1ccc([C@H]2C[C@@H]2COc2nc(C)ncc2-c2cc(O)ccn2)nc1` [Example 53, 2-(2-methyl-4-(((1S,2S)-2-(5-methylpyridin-2-yl)cyclopropyl)methoxy)pyrimidin-5-yl)pyridin-4-ol], the Ki amounted to 25.5 nM.
Under `C=Cc1cnc(C)nc1OC[C@H]1C[C@@H]1c1ccc(C)cn1` [Example 54, 2-methyl-4-(((1S,2S)-2-(5-methylpyridin-2-yl)cyclopropyl)methoxy)-5-vinylpyrimidine] stands 10.4 nM; under `Cc1ccc([C@H]2C[C@@H]2COc2nc(C)ncc2-c2cnc(C)cc2C)nc1` [Example 55, 5-(4,6-dimethylpyridin-3-yl)-2-methyl-4-(((1S,2S)-2-(5-methylpyridin-2-yl)cyclopropyl)methoxy)pyrimidine], 0.87 nM.
Under `COc1cc(-c2cnc(C)nc2OC[C@H]2C[C@@H]2c2ccc(C)cn2)cnn1` [Example 56, 3-methoxy-5-(2-methyl-4-(((1S,2S)-2-(5-methylpyridin-2-yl)cyclopropyl)methoxy)pyrimidin-5-yl)pyridazine] stands 6.12 nM.
As to `COCCOc1ccc(-c2cnc(C)nc2OC[C@H]2C[C@@H]2c2ccc(C)cn2)cn1` [Example 57, 5-(6-(2-methoxyethoxy)pyridin-3-yl)-2-methyl-4-(((1S,2S)-2-(5-methylpyridin-2-yl)cyclopropyl)methoxy)pyrimidine], the Ki was found to be 0.57 nM.
Under `Cc1ccc([C@H]2C[C@@H]2COc2nc(C)ncc2-c2cnnc(C)c2)nc1` [Example 58, 3-methyl-5-(2-methyl-4-(((1S,2S)-2-(5-methylpyridin-2-yl)cyclopropyl)methoxy)pyrimidin-5-yl)pyridazine] stands 3.02 nM; under `Cc1ccc([C@H]2C[C@@H]2COc2nc(C)ncc2-c2cnnc(Br)c2)nc1` [Example 59, 3-bromo-5-(2-methyl-4-(((1S,2S)-2-(5-methylpyridin-2-yl)cyclopropyl)methoxy)pyrimidin-5-yl)pyridazine], 4.34 nM.
Under `Cc1ccc([C@H]2C[C@@H]2COc2nc(C)ncc2C2=CC(=O)OC2)nc1` [Example 60, 4-(2-methyl-4-(((1S,2S)-2-(5-methylpyridin-2-yl)cyclopropyl)methoxy)pyrimidin-5-yl)furan-2(5H)-one] stands 13.9 nM.
Under `Cc1ccc([C@H]2C[C@@H]2COc2nc(C)ncc2-c2ccc(OC(C)C)nc2C)nc1` [Example 61, 5-(6-isopropoxy-2-methylpyridin-3-yl)-2-methyl-4-(((1S,2S)-2-(5-methylpyridin-2-yl)cyclopropyl)methoxy)pyrimidine] stands 1.51 nM; under `Cc1ccc([C@H]2C[C@@H]2COc2nc(C)ncc2-c2cnsc2)nc1` [Example 62, 4-(2-methyl-4-(((1S,2S)-2-(5-methylpyridin-2-yl)cyclopropyl)methoxy)pyrimidin-5-yl)isothiazole], 2.02 nM; under `COc1ccc([C@H]2C[C@@H]2COc2nc(C)ncc2-c2ccc(S(C)(=O)=O)nc2)nc1` [Example 63, 4-(((1S,2S)-2-(5-methoxypyridin-2-yl)cyclopropyl)methoxy)-2-methyl-5-(6-(methylsulfonyl)pyridin-3-yl)pyrimidine], 2.95 nM.
